According to patent US9675658B2, “Method of treating inflammation, allergy and asthma with a purified extract (ATC2) isolated from Pseudolysimachion rotundam var. subintegrum containing abundant amount of active ingredient” (YUNGJIN PHARMACEUTICAL CO., LTD, priority 2012, dated 2017):

How the values were obtained:
Assay type in all cases: in vivo, BALB/c mice
[1] = test system: OVA-sensitized/challenged mouse model; assay: Preliminary determination of total serum IgE level in OVA-sensitized/challenged mouse model; conditions: 30 mg/kg PO 1 h prior to OVA inhalation
Experimental: In order to found the purified extract showing more pharmacologically potent activity than the crude extract prepared in comparative Example, following preliminary test was performed by the method disclosed in the literature (Elias, J. A. et al., J. Clin. Invest., 111, pp 297-297, 2003).
1-1. Animal Sensitization and Airway Challenge
(§1) Specific pathogen-free female BALB/c mice (about 20 g), aged 6 weeks, which were routinely screened serologically for relevant respiratory pathogens, were purchased from ORIENT Co. (Seoul, Korea) and acclimated with the experimental environment for 1 week.
(§2) Briefly, mice were sensitized by intraperitoneal injection of 20 μg OVA (Ovalbumin; A5503, Sigma, St. Louis, Mo.), which was emulsified in 2 mg aluminum hydroxide in 200 μl of PBS buffer (pH 7.4), biweekly. The mice were challenged through the airways with OVA (1% in PBS) for 30 min using an ultrasonic nebulizer (NE-U12; Omron Corp., Tokyo, Japan) from the 28th day to 34th day after the initial sensitization. 24 hrs after the antigen treatment, the airway hyperresponsiveness was determined and the mice were sacrificed 48 hrs after the last challenge. The mice were sacrificed with an overdose of pentobarbital (Entobal®, Hanrim Pharm. Co. Ltd.) 24 h after the last challenge, and a tracheotomy was performed. […]

[2] = test system: OVA-sensitized/challenged mouse model; assay: Airway hyperresponsiveness test (Penh, whole body plethysmography, methacholine); conditions: 30 mg/kg PO
Experimental: In order to confirm the anti-asthmatic effect of test samples prepared in Examples using by airway hyperresponsiveness test in a OVA-sensitized/challenged mouse model, following test was performed by the method disclosed in the literature (Elias, J. A. et al., J. Clin. Invest., 111, pp 297-297, 2003).
as §1
as §2, with “performed. After […] of physiological saline solution (PBS) was instilled into the lungs, bronchoalveolar lavage fluid (BALF) was obtained by aspiration three times (total 1.5 ml) via tracheal cannulation.” for “performed.”
In order to evaluate the airway hyperresponsiveness of the mice, the airway resistance was determined using by apparatus (One chamber whole body plethymography, OCP3000, All Medicus, Seoul. Korea) and the determined value was statistically calculated by Pehn value (Enhance Pause) reflecting on the degree of airway obstruction. The Penh value was determined for 3 mins by the process of determining the basal value at the eupnea phase and determining the Penh value after inhaling PBS with Ultrasonic nebulizer (NE-U12, IMRON Corp., Tokyo, JAPAN) for 3 mins.
Thereafter, various concentrations of methacholine (A2251, Sigma, St. Louis, Mo.), 12, 25 and 50 mg/ml, were inhaled with increasing concentration to determine the Pehn values. The increase of Penh value was expressed as percentage (%) after the methacholine inhalation and the Penh value of basal line was set to 100%. […]

[3] = test system: OVA-sensitized/challenged mouse model; assay: Level of eosinophil and inflammatory cells in BALF; conditions: 30 mg/kg PO
Experimental: In order to confirm the inhibition effect of test samples prepared in Examples on the level of eosinophil and inflammatory cells in bronchoalveolar fluid (BALF), following test was performed by the method disclosed in the literature (Chen M. et al., Immunolgy, pp 376-384, 2011).
The bronchoalveolar lavage fluid (BALF) prepared in Experimental Example 1 was recovered to determine the level of inflammatory cells.
The total inflammatory cell number was assessed by the counting of cells in at least five squares of a hemocytometer after excluding dead cells by staining with trypan blue (Daigle I. et al., Swiss Med Wkly, 131, pp 231-7, 2001). 100 μl of BALF was loaded onto a slide and centrifuged (200×g, 4° C., 10 min) to fix the cells onto the slide using a Cellspin machine (Cyto12.5+clip5, Hanil Science Industrial, Korea). The cells were stained by Diff-Quick® Stain reagents (Sysmex, Cat No. 38721, Switzerland) according to the manufacturer's instructions. Statistical significance was determined by Student's two-tailed t-test for independent means and the critical level for significance was set at P<0.05.

[4] = test system: OVA-sensitized/challenged mouse model; assay: Level of IgE and OVA-specific IgE in blood serum (ELISA); conditions: 30 mg/kg PO
Experimental: In order to confirm the inhibition effect of test samples prepared in Examples on the level of IgE and OVA-specific IgE in blood serum, following test was performed by the method disclosed in the literature (Kay, A. B., The New England Journal of Medicine, 344, pp 30-37, 2001).
The blood serum and bronchoalveolar lavage fluid (BALF) prepared in Experimental Example 1 was recovered to determine the level of IgE and OVA-specific IgE in blood serum.
The blood serum and bronchoalveolar lavage fluid (BALF) was added to 96-well plates (ELISA plate) and coated with 0.1M NaHCO3 buffer solution (pH 8.3) containing 20 μg/mlof OVA (Sigma, Mo., USA) at 4° C. overnight. After inhibiting nonspecific reaction using by PBS containing 1% bovine serum albumin, the serum for testing was diluted to 1:400 and reacted together for 2 hours at room temperature. After washing, the serum was reacted with diluted (×300) anti-mouse IgE monoclonal antibody (MCA419, Serotec, Oxford, UK) for 2 hours and with diluted (×4000) HRP-conjugated goat anti-rat IgG polyclonal A (STAR110P, Serotec, UK) for 1 hours at room temperature. After washing, the solution was stained with 3,3′,5,5′-tetramethylbenzidine (52-00-02, KPL) substrate and the reaction was stopped by 2N H2SO4 to determine the absorbance using by spectroscopy (Versamax, Molecular Devices, US) at 450 nm.

[5] = test system: OVA-sensitized/challenged mouse model; assay: Level of Th2 cytokines (IL-4, IL-5, IL-13) and IL-1β in BALF (ELISA); conditions: 30 mg/kg PO
Experimental: In order to confirm the inhibition effect of test samples prepared in Examples on the level of Th2 cytokines (IL-4, IL-5 and IL-13) and IL-1β in bronchoalveolar lavage fluid (BALF), following test was performed by the sandwich enzyme immunosorbent assay method disclosed in the literature (Renz H. et al., J. Exp. Med., […], pp 1175-1180, 1993).
The blood serum and bronchoalveolar lavage fluid (BALF) was added to 96-well plates (ELISA plate) coated with cytokine antibody to induce antigen-antibody reaction for 2 hours at room temperature. The level of Th2 cytokines (IL-4, IL-5 and IL-13) and IL-1β in bronchoalveolar lavage fluid (BALF) was determined using by ELISA kit (Biosource Int. CA, USA) specifically reacting with each cytokine according to the manufacture's manual.

[6] = test system: OVA-sensitized/challenged mouse model; assay: Lung histology, H&E inflammation score; conditions: lung tissue, score 0-3; 30 mg/kg PO
Experimental: In order to confirm the anti-asthmatic effect of test samples prepared in Examples, following histopathological analysis on broncho-alveolar tissue was performed by the method disclosed in the literature (Kwak Y G. et al., J. Clin. Invest., 111, pp 1083-1092, 2003).
The delivered lung tissues of BALB/c mice which had not perform broncho-alveolar lavage was fixed for 24 h in 10% neutral-buffered formalin. After being embedded in paraffin, then made into 4-μm thickness sections, the tissue was stained with H&E solution (hematoxylin; Sigma MHS-16 and eosin, Sigma HT110-I-32) and the inflammation score of five regions in each section chosen in a randomized manner, was determined. (Inflammation score 0: inflamed cells is not found in bronchial surrounding, Inflammation score 1: inflamed cells is sporadically found in bronchial surrounding, Inflammation score 2: thin inflamed cell layer is found in most of bronchial surrounding, Inflammation score 3: thick inflamed cell layer is found in most of bronchial surrounding).

[7] = test system: OVA-sensitized/challenged mouse model; assay: Goblet cell plasia, PAS staining of lung tissue; conditions: ratio of goblet cell in bronchiolar epithelial cell; 30 mg/kg PO
Experimental: In order to confirm the anti-asthmatic effect of test samples prepared in Examples, following goblet cell plasia analysis on broncho-alveolar tissue was performed by the method disclosed in the literature (Lee K S. et al., FASEB J., 20, pp 455-465, 2006).
The delivered lung tissues of BALB/c mice which had not perform broncho-alveolar lavage was fixed for 24 h in 10% neutral-buffered formalin. After being embedded in paraffin, then made into 4-μm thickness sections, the tissue was stained with Periodic acid Schiff (PAS stain kit, T-K7308, IMEB, CA, USA) to determine the ratio of goblet cell in bronchiolar epithelial cell

CC(C)(O)c1ccccc1CC[C@@H](SCC1(CC(=O)O)CC1)c1cccc(/C=C/c2ccc3ccc(Cl)cc3n2)c1 [M30, Montelukast]
total IgE in blood serum [1]: 1.82 ± 0.4 µg/mL
Penh Value ([2]; methacholine 0 mg/Ml): 0.49 ± 0.04
Penh Value ([2]; methacholine 12.5 mg/Ml): 1.54 ± 0.20
Penh Value ([2]; methacholine 25 mg/Ml): 1.98 ± 0.37
Penh Value ([2]; methacholine 50 mg/Ml): 2.51 ± 0.36
No. of eosinolphil [3]: 52.03 ± 4.06 10^3 cells/mouse
No. of inflammatory cells [3]: 106.67 ± 6.48 10^3 cells/mouse
level of IgE in serum [4]: 4.76 ± 0.73 µg/mL
level of OVA-specific IgE ([4]; blood serum): 0.09 ± 0.02 µg/mL
IL-1β level [5]: 187.03 ± 47.17 pg/mL
IL-4 level [5]: 32.60 ± 4.53 pg/mL
IL-5 level [5]: 69.74 ± 7.17 pg/mL
IL-13 level [5]: 25.93 ± 4.13 pg/mL
Inflammation score [6]: 1.25 ± 0.13
PAS + cells/bronchiole [7]: 39.21 ± 2.34%
